# Experimental data taken from PubChem BioAssay AID212 (DTP/NCI, 2004).
# Values joined by “and” are separate entries in the source; they are usually repeats but may differ in a detail not shown here. Identical values can stand only once. Results filed as inconclusive are left out.
# Tested on: BDF1 mice, colon carcinoma 38 sc, T/C %
# Test: NCI In Vivo Anticancer Drug Screen. Data for tumor model Colon Carcinoma 38 (subcutaneous) in B6D2F1 (BDF1) mice
# Settings: endpoint: median tumor weight (est.), higher = larger tumour
# Outline: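 Ratio of survival or tumor size, compound-treated animals relative to vehicle controls, in tumor-bearing mice.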
# [1] = dose: 50.0 mg/kg/injection, schedule: Q07DX002 (ip), vehicle: saline with Tween-80
# [2] = dose: 12.5 mg/kg/injection, schedule: Q07DX002 (ip), vehicle: saline
# [3] = dose: 50.0 mg/kg/injection, schedule: Q07DX002 (ip), vehicle: saline
# [4] = dose: 25.0 mg/kg/injection, schedule: Q07DX002 (ip), vehicle: saline with Tween-80
smiles,measurement,setting,value
COC1C=CC23c4cc5c(cc4C(O)OC2CN(C)C3C1)OCO5 (centres undefined),T/C,"dose: 18.75 mg/kg/injection, schedule: Q07DX002 (ip), vehicle: suspension in saline",91 % of control
same,T/C,"dose: 37.5 mg/kg/injection, schedule: Q07DX002 (ip), vehicle: suspension in saline",82 % of control
same,T/C,"dose: 75.0 mg/kg/injection, schedule: Q07DX002 (ip), vehicle: suspension in saline",105 % of control
CN=C(N)N/N=C(\c1ccccc1)c1ccc(Br)cc1,T/C,"dose: 3.0 mg/kg/injection, schedule: Q07DX002 (ip), vehicle: saline with Tween-80",152 % of control
same,T/C,"dose: 6.25 mg/kg/injection, schedule: Q07DX002 (ip), vehicle: saline with Tween-80",169 % of control
same,T/C,"dose: 12.5 mg/kg/injection, schedule: Q07DX002 (ip), vehicle: saline with Tween-80",156 % of control
same,T/C,[1],96 % of control
Nc1ncnc2c1ncn2C1OC(CO)C(O)C1O (centres undefined),T/C,[2],103 % of control
same,T/C,"dose: 25.0 mg/kg/injection, schedule: Q07DX002 (ip), vehicle: saline",115 % of control
same,T/C,"dose: 25.0 mg/kg/injection, schedule: Q07DX003 (ip), vehicle: saline",233 % of control
same,T/C,[3],85 % of control
same,T/C,"dose: 50.0 mg/kg/injection, schedule: Q07DX003 (ip), vehicle: saline",238 % of control
same,T/C,"dose: 75.0 mg/kg/injection, schedule: Q07DX002 (ip), vehicle: saline",80 % of control
same,T/C,"dose: 100.0 mg/kg/injection, schedule: Q07DX002 (ip), vehicle: saline",110 % of control
same,T/C,"dose: 150.0 mg/kg/injection, schedule: Q07DX002 (ip), vehicle: saline",97 % of control
same,T/C,"dose: 300.0 mg/kg/injection, schedule: Q07DX002 (ip), vehicle: saline",105 % of control
same,T/C,"dose: 600.0 mg/kg/injection, schedule: Q07DX002 (ip), vehicle: saline",116 % of control
NC(=O)CC(N)C(=O)O (centres undefined),T/C,"dose: 50.0 mg/kg/injection, schedule: Q07DX002 (ip), vehicle: other",72 % of control
same,T/C,"dose: 100.0 mg/kg/injection, schedule: Q07DX002 (ip), vehicle: other",85 % of control
same,T/C,"dose: 200.0 mg/kg/injection, schedule: Q07DX002 (ip), vehicle: other",79 % of control
same,T/C,"dose: 400.0 mg/kg/injection, schedule: Q07DX002 (ip), vehicle: other",91 % of control
same,T/C,"dose: 800.0 mg/kg/injection, schedule: Q07DX002 (ip), vehicle: other",118 % of control
same,T/C,"dose: 1600.0 mg/kg/injection, schedule: Q07DX002 (ip), vehicle: other",88 % of control
O=NNc1ccccn1,T/C,"dose: 1.56 mg/kg/injection, schedule: Q07DX002 (ip), vehicle: saline",98 % of control
same,T/C,"dose: 3.12 mg/kg/injection, schedule: Q07DX002 (ip), vehicle: saline",85 % of control and 96 % of control
same,T/C,"dose: 6.25 mg/kg/injection, schedule: Q07DX002 (ip), vehicle: saline",110 % of control
same,T/C,[2],120 % of control and 106 % of control
same,T/C,[3],95 % of control
NCC1CCC(C(=O)O)CC1 (centres undefined),T/C,[4],83 % of control
same,T/C,[1],104 % of control
same,T/C,"dose: 100.0 mg/kg/injection, schedule: Q07DX002 (ip), vehicle: saline with Tween-80",99 % of control
same,T/C,"dose: 200.0 mg/kg/injection, schedule: Q07DX002 (ip), vehicle: saline with Tween-80",102 % of control
O=S(=O)(c1ccccc1)N1CN2CCN(C2)C1,T/C,[4],94 % of control
same,T/C,[1],62 % of control
COc1cc2cc(c1Cl)N(C)C(=O)CC(OC(=O)C(C)C)C1(C)OC1C(C)C1CC(O)(NC(=O)O1)C(OC)/C=C/C=C(C)C2 (centres undefined),T/C,"dose: 6.2 micrograms/kg/injection, schedule: Q07DX003 (ip), vehicle: saline + alcohol",109 % of control
same,T/C,"dose: 12.5 micrograms/kg/injection, schedule: Q07DX003 (ip), vehicle: saline + alcohol",90 % of control
same,T/C,"dose: 25.0 micrograms/kg/injection, schedule: Q07DX003 (ip), vehicle: saline + alcohol",88 % of control
same,T/C,"dose: 50.0 micrograms/kg/injection, schedule: Q07DX003 (ip), vehicle: saline + alcohol",79 % of control
same,T/C,"dose: 100.0 micrograms/kg/injection, schedule: Q07DX003 (ip), vehicle: saline + alcohol",93 % of control
